Measured values from patent US20220117938A1, “COMBINATON THERAPY WITH A DON PRODRUG AND AN IMMUNE CHECKPOINT INHIBITOR” (DRACEN PHARMACEUTICALS, INC., priority 2019, published 2022).

Tested on: CT26.WT tumors
Test: Anti-tumor efficacy of Compound 1 by IV and SC routes in the CT26.WT model (Example 8)
Type: in vivo, mice
Procedure: Female BALB/c mice were inoculated subcutaneously in the right flank with CT26.WT cells for tumor development. Six days after tumor inoculation, mice with tumor sizes ranging from 32-77 mm^3 (average tumor size 56 mm^3) were selected and assigned into 6 groups using stratified randomization with 8 mice per group based upon their tumor volumes. The treatments were started from the day of randomization (defined as D0), Group 1 was treated with Vehicle control, q.d.×5 days on (Mon-Fri)×4 cycles s.c.; Group 2 was treated with Compound 1, 0.7 mpk×5 days on (Mon-Fri)×4 cycles s.c.; Group 3 was treated with Compound 1, 1.4 mpk×5 days on (Mon-Fri)×4 cycles s.c.; Group 4 was treated with Compound 1, 4.5 mpk×3-days on (Mon, Wed, Fri)×4 cycles, iv; Group 5 was treated with Compound 1, 7 mpk×2-days on (Mon,Thu)×4 cycles, iv; Group 6 was treated with Compound 1, 14 mpk×1-day on (Mon)×4 cycles, iv. The tumor sizes were measured three times per week during the treatment. The entire study was terminated on D44 after start of the treatment. All treatments were well-tolerated without any adverse effects or significant body weight loss.

[1] = Group 2, 0.7 mpk s.c. Mon-Fri x4 cycles
[2] = Group 2, 0.7 mpk s.c. Mon-Fri x4 cycles, day 16
[3] = Group 3, 1.4 mpk s.c. Mon-Fri x4 cycles
[4] = Group 3, 1.4 mpk s.c. Mon-Fri x4 cycles, day 16
[5] = Group 4, 4.5 mpk iv Mon,Wed,Fri x4 cycles
[6] = Group 4, 4.5 mpk iv Mon,Wed,Fri x4 cycles, day 16
[7] = Group 5, 7 mpk iv Mon,Thu x4 cycles
[8] = Group 5, 7 mpk iv Mon,Thu x4 cycles, day 16
[9] = Group 6, 14 mpk iv Mon x4 cycles
[10] = Group 6, 14 mpk iv Mon x4 cycles, day 16

Compound: CC(=O)N[C@@H](Cc1c[nH]c2ccccc12)C(=O)N[C@@H](CCC(=O)C=[N+]=[N-])C(=O)OC(C)C [Compound 1, Isopropyl (S)-2-((S)-2-acetamido-3-(1H-indol-3-yl)propanamido)-6-diazo-5-oxohexanoate]
- ILS [1]: 86.1%
- MST [1]: 33.5 days
- RTV at day 16 [1]: 4.45 ± 0.74
- Tumor volume (Group 2, 0.7 mpk s.c. Mon-Fri x4 cycles, day 0): 56 ± 4 mm^3
- Tumor volume (Group 2, 0.7 mpk s.c. Mon-Fri x4 cycles, day 2): 62 ± 7 mm^3
- Tumor volume (Group 2, 0.7 mpk s.c. Mon-Fri x4 cycles, day 4): 89 ± 10 mm^3
- Tumor volume (Group 2, 0.7 mpk s.c. Mon-Fri x4 cycles, day 7): 124 ± 20 mm^3
- Tumor volume (Group 2, 0.7 mpk s.c. Mon-Fri x4 cycles, day 9): 140 ± 22 mm^3
- Tumor volume (Group 2, 0.7 mpk s.c. Mon-Fri x4 cycles, day 11): 143 ± 21 mm^3
- Tumor volume (Group 2, 0.7 mpk s.c. Mon-Fri x4 cycles, day 14): 261 ± 45 mm^3
- T/C [2]: 14.25%
- TGI [2]: 87.81%
- Tumor volume [2]: 259 ± 52 mm^3
- Tumor volume (Group 2, 0.7 mpk s.c. Mon-Fri x4 cycles, day 18): 308 ± 63 mm^3
- Tumor volume (Group 2, 0.7 mpk s.c. Mon-Fri x4 cycles, day 21): 407 ± 83 mm^3
- Tumor volume (Group 2, 0.7 mpk s.c. Mon-Fri x4 cycles, day 23): 522 ± 102 mm^3
- Tumor volume (Group 2, 0.7 mpk s.c. Mon-Fri x4 cycles, day 25): 648 ± 130 mm^3
- Tumor volume (Group 2, 0.7 mpk s.c. Mon-Fri x4 cycles, day 28): 1030 ± 194 mm^3
- Tumor volume (Group 2, 0.7 mpk s.c. Mon-Fri x4 cycles, day 30): 1585 ± 288 mm^3
- ILS [3]: 86.1%
- MST [3]: 33.5 days
- RTV at day 16 [3]: 4.94 ± 0.82
- Tumor volume (Group 3, 1.4 mpk s.c. Mon-Fri x4 cycles, day 0): 56 ± 5 mm^3
- Tumor volume (Group 3, 1.4 mpk s.c. Mon-Fri x4 cycles, day 2): 55 ± 7 mm^3
- Tumor volume (Group 3, 1.4 mpk s.c. Mon-Fri x4 cycles, day 4): 70 ± 8 mm^3
- Tumor volume (Group 3, 1.4 mpk s.c. Mon-Fri x4 cycles, day 7): 107 ± 19 mm^3
- Tumor volume (Group 3, 1.4 mpk s.c. Mon-Fri x4 cycles, day 9): 118 ± 21 mm^3
- Tumor volume (Group 3, 1.4 mpk s.c. Mon-Fri x4 cycles, day 11): 150 ± 26 mm^3
- Tumor volume (Group 3, 1.4 mpk s.c. Mon-Fri x4 cycles, day 14): 235 ± 35 mm^3
- T/C [4]: 15.82%
- TGI [4]: 86.45%
- Tumor volume [4]: 282 ± 52 mm^3
- Tumor volume (Group 3, 1.4 mpk s.c. Mon-Fri x4 cycles, day 18): 292 ± 49 mm^3
- Tumor volume (Group 3, 1.4 mpk s.c. Mon-Fri x4 cycles, day 21): 406 ± 85 mm^3
- Tumor volume (Group 3, 1.4 mpk s.c. Mon-Fri x4 cycles, day 23): 484 ± 103 mm^3
- Tumor volume (Group 3, 1.4 mpk s.c. Mon-Fri x4 cycles, day 25): 539 ± 119 mm^3
- Tumor volume (Group 3, 1.4 mpk s.c. Mon-Fri x4 cycles, day 28): 853 ± 163 mm^3
- Tumor volume (Group 3, 1.4 mpk s.c. Mon-Fri x4 cycles, day 30): 1372 ± 230 mm^3
- ILS [5]: 61.1%
- MST [5]: 29 days
- RTV at day 16 [5]: 8.92 ± 1.58
- Tumor volume (Group 4, 4.5 mpk iv Mon,Wed,Fri x4 cycles, day 0): 56 ± 3 mm^3
- Tumor volume (Group 4, 4.5 mpk iv Mon,Wed,Fri x4 cycles, day 2): 70 ± 6 mm^3
- Tumor volume (Group 4, 4.5 mpk iv Mon,Wed,Fri x4 cycles, day 4): 92 ± 11 mm^3
- Tumor volume (Group 4, 4.5 mpk iv Mon,Wed,Fri x4 cycles, day 7): 126 ± 16 mm^3
- Tumor volume (Group 4, 4.5 mpk iv Mon,Wed,Fri x4 cycles, day 9): 168 ± 24 mm^3
- Tumor volume (Group 4, 4.5 mpk iv Mon,Wed,Fri x4 cycles, day 11): 223 ± 40 mm^3
- Tumor volume (Group 4, 4.5 mpk iv Mon,Wed,Fri x4 cycles, day 14): 427 ± 73 mm^3
- T/C [6]: 28.57%
- TGI [6]: 73.09%
- Tumor volume [6]: 503 ± 94 mm^3
- Tumor volume (Group 4, 4.5 mpk iv Mon,Wed,Fri x4 cycles, day 18): 648 ± 148 mm^3
- Tumor volume (Group 4, 4.5 mpk iv Mon,Wed,Fri x4 cycles, day 21): 948 ± 230 mm^3
- ILS [7]: 61.1%
- MST [7]: 29 days
- RTV at day 16 [7]: 7.58 ± 1.97
- Tumor volume (Group 5, 7 mpk iv Mon,Thu x4 cycles, day 0): 56 ± 4 mm^3
- Tumor volume (Group 5, 7 mpk iv Mon,Thu x4 cycles, day 2): 71 ± 9 mm^3
- Tumor volume (Group 5, 7 mpk iv Mon,Thu x4 cycles, day 4): 78 ± 11 mm^3
- Tumor volume (Group 5, 7 mpk iv Mon,Thu x4 cycles, day 7): 142 ± 26 mm^3
- Tumor volume (Group 5, 7 mpk iv Mon,Thu x4 cycles, day 9): 166 ± 37 mm^3
- Tumor volume (Group 5, 7 mpk iv Mon,Thu x4 cycles, day 11): 185 ± 45 mm^3
- Tumor volume (Group 5, 7 mpk iv Mon,Thu x4 cycles, day 14): 395 ± 114 mm^3
- T/C [8]: 24.28%
- TGI [8]: 76.00%
- Tumor volume [8]: 455 ± 131 mm^3
- Tumor volume (Group 5, 7 mpk iv Mon,Thu x4 cycles, day 18): 518 ± 135 mm^3
- Tumor volume (Group 5, 7 mpk iv Mon,Thu x4 cycles, day 21): 878 ± 272 mm^3
- ILS [9]: 47.2%
- MST [9]: 26.5 days
- RTV at day 16 [9]: 7.02 ± 0.87
- Tumor volume (Group 6, 14 mpk iv Mon x4 cycles, day 0): 56 ± 5 mm^3
- Tumor volume (Group 6, 14 mpk iv Mon x4 cycles, day 2): 69 ± 7 mm^3
- Tumor volume (Group 6, 14 mpk iv Mon x4 cycles, day 4): 78 ± 5 mm^3
- Tumor volume (Group 6, 14 mpk iv Mon x4 cycles, day 7): 163 ± 24 mm^3
- Tumor volume (Group 6, 14 mpk iv Mon x4 cycles, day 9): 160 ± 22 mm^3
- Tumor volume (Group 6, 14 mpk iv Mon x4 cycles, day 11): 204 ± 29 mm^3
- Tumor volume (Group 6, 14 mpk iv Mon x4 cycles, day 14): 425 ± 72 mm^3
- T/C [10]: 22.49%
- TGI [10]: 78.92%
- Tumor volume [10]: 406 ± 74 mm^3
- Tumor volume (Group 6, 14 mpk iv Mon x4 cycles, day 18): 578 ± 89 mm^3
- Tumor volume (Group 6, 14 mpk iv Mon x4 cycles, day 21): 1035 ± 150 mm^3
- Tumor volume (Group 6, 14 mpk iv Mon x4 cycles, day 23): 1216 ± 177 mm^3
- Tumor volume (Group 6, 14 mpk iv Mon x4 cycles, day 25): 1684 ± 231 mm^3
